Experimental data reported in patent publication US6077840A, “Tetrahydrobenzindolone derivatives” (Meiji Seika Kaisha, Ltd., priority 1996, dated 2000).

Tests used:
progesterone receptor = target: T1, progesterone receptor (Sus scrofa, UniProt D0EWS6); test: progesterone receptor binding inhibition ([^3 H]-progesterone, hog uterus cytosol); parameters: species or system hogs; settings: [^3 H]-progesterone ligand, 60 min at 4° C., read-out: Inhibitory activity against progesterone receptor binding (IC50)
T1 construct: thereby preparing a cytosol containing progesterone receptor; from tissue; host or cells: hog uterus, cytosol (100,000×g supernatant)
T1 sequence (D0EWS6 1-934): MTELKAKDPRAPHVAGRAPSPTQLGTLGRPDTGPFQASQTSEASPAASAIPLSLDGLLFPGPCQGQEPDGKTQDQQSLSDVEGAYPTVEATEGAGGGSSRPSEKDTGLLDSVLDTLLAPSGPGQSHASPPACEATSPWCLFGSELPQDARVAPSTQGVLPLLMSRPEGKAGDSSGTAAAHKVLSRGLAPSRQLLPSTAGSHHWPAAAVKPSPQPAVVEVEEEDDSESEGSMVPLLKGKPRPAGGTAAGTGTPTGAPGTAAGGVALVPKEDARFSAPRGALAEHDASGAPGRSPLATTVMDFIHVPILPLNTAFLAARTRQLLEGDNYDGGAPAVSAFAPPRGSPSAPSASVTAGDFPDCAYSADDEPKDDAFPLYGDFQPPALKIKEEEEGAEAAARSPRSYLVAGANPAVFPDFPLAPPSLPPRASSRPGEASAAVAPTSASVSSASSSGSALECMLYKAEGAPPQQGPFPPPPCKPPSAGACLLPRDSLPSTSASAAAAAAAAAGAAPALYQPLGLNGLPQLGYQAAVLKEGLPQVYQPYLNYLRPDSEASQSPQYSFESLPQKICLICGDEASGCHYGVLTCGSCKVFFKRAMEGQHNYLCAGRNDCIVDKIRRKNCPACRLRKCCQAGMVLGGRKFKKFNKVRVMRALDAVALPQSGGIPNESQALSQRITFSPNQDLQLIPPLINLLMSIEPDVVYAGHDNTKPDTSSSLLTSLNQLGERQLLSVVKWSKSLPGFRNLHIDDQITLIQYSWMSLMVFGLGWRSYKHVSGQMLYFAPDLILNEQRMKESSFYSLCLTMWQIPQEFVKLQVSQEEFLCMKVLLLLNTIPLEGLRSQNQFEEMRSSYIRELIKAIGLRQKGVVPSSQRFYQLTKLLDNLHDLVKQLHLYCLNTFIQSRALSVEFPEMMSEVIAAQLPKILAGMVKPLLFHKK
Experimental: Uteri taken from hogs in 5 mM phosphate buffer were disrupted using Polytron homogenizer, and the resulting solution was centrifuged (100,000×g, 30 min) to separate the supernatant, thereby preparing a cytosol containing progesterone receptor. […] Then, 100 μl of a 0.5% activated carbon solution was added to the reaction solution, and the mixture was allowed to stand for 10 min and then centrifuged (2,000×g, 10 min). The radioactivity of the supernatant was measured with a liquid scintillation counter.
Separately, the radioactivity was measured in the same manner as described above, except that no test drug was added. Further, the radioactivity was measured in the same manner as described above, except that 10 μl of Medroxyprogesterone Acetate (MPA) (10 μg/ml) was added instead of the test drug. The radioactivity with no test drug added was defined as the amount of total binding of [^3 H]-progesterone to the cytosol, and the radioactivity with MPA added was defined as the amount of non-specific binding. The inhibition ratio was calculated from these measured values by the following equation to determine the binding inhibitory activity (IC50).
Inhibition ratio (%)= [formula]

[1] = Test on Toxicity upon Continuous Administration; format: in vivo; settings: 60 mg/kg, subcutaneous, 16 week-old male SD rats (five)
Experimental: A homogeneous suspension of the compound, according to the present invention, prepared in Example 8 in a 0.2% aqueous methyl cellulose solution was subcutaneously administered to 16 week-old male SD rats (five rats). The dose of the compound prepared in Example 8 was 60 mg/kg.

Row | IC50 (progesterone receptor) [nM] | Structure (SMILES) | other results
1 | 47 | CO[C@@H]1C=C2C=C3C(=C(C)C(=O)N3C)C[C@]2(C)[C@@H](C)[C@H]1OC(=O)c1cccs1 [Example 31, (4aR,5R,6R,7R)-7-Methoxy-4a,5,6,7-tetrahydro-1,3,4a,5-tetramethyl-6-(2-thiophenecarbonyloxy)benz[f]indol-2(4H)-one] | 
2 | 51 | CCCO[C@H]1[C@H](OC)C=C2C=C3C(=C(C)C(=O)N3C)C[C@]2(C)[C@H]1C [Example 36, (4aR,5R,6R,7R)-7-Methoxy-6-propoxy-4a,5,6,7-tetrahydro-1,3,4a,5-tetramethylbenz[f]indol-2(4H)-one] | 
3 | 42 | CO[C@H]1[C@H](OC)C=C2C=C3C(=C(C)C(=O)N3C)C[C@]2(C)[C@H]1C [Example 34, (4aR,5R,6R,7R)-6,7-Dimethoxy-4a,5,6,7-tetrahydro-1,3,4a,5-tetramethylbenz[f]indol-2(4H)-one] | 
4 | 156 | CCCNC(=O)O[C@H]1[C@H](SCC)C=C2C=C3C(=C(C)C(=O)N3C)C[C@]2(C)[C@H]1C [Example 107, (4aR,5R,6R,7R)-7-Ethylthio-6-propylcarbamoyloxy-4a,5,6,7-tetrahydro-1,3,4a,5-tetramethylbenz[f]indol-2(4H)-one] | 
5 | 44 | C=CCO[C@H]1[C@H](OC)C=C2C=C3C(=C(C)C(=O)N3C)C[C@]2(C)[C@H]1C [Example 41, (4aR,5R,6R,7R)-7-Methoxy-6-(2-propenyloxy)-4a,5,6,7-tetrahydro-1,3,4a,5-tetramethylbenz[f]indol-2(4H)-one] | 
6 | 27 | CO[C@@H]1C=C2C=C3C(=C(C)C(=O)N3C)C[C@]2(C)[C@@H](C)[C@H]1OC(=O)c1ccco1 [Example 32, (4aR,5R,6R,7R)-6-(2-Furancarbonyloxy)-7-methoxy-4a,5,6,7-tetrahydro-1,3,4a,5-tetramethylbenz[f]indol-2(4H)-one] | 
7 | 164 | CCS[C@@H]1C=C2C=C3C(=C(C)C(=O)N3C)C[C@]2(C)[C@@H](C)[C@H]1OC(=O)CC [Example 101, (4aR,5R,6R,7R)-7-Ethylthio-6-propionyloxy-4a,5,6,7-tetrahydro-1,3,4a,5-tetramethylbenz[f]indol-2(4H)-one] | 
8 | 17 | CCC(=O)O[C@H]1[C@H](OC)C=C2C=C3C(=C(C)C(=O)N3C)C[C@]2(C)[C@H]1C [Example 26, (4aR,5R,6R,7R)-7-Methoxy-6-propionyloxy-4a,5,6,7-tetrahydro-1,3,4a,5-tetramethylbenz[f]indol-2(4H)-one] | 
9 | 36 | CCO[C@H]1[C@H](OC)C=C2C=C3C(=C(C)C(=O)N3C)C[C@]2(C)[C@H]1C [Example 35, (4aR,5R,6R,7R)-6-Ethoxy-7-methoxy-4a,5,6,7-tetrahydro-1,3,4a,5-tetramethylbenz[f]indol-2(4H)-one] | 
10 | 64 | CCC(=O)O[C@H]1[C@H](SC)C=C2C=C3C(=C(C)C(=O)N3C)C[C@]2(C)[C@H]1C [Example 97, (4aR,5R,6R,7R)-7-Methylthio-6-propionyloxy-4a,5,6,7-tetrahydro-1,3,4a,5-tetramethylbenz[f]indol-2(4H)-one] | 

The remaining lines, values behind:

Row | Structure (SMILES) | IC50 (progesterone receptor) [nM] | other results
11 | CCC(=O)O[C@H]1CC=C2C=C3C(=C(C)C(=O)N3C)C[C@]2(C)[C@H]1C [Example 113, (4aR,5R,6S)-6-Propionyloxy-4a,5,6,7-tetrahydro-1,3,4a,5-tetramethylbenz[f]indol-2(4H)-one] | 99 | 
12 | CCS[C@@H]1C=C2C=C3C(=C(C)C(=O)N3C)C[C@]2(C)[C@@H](C)[C@H]1OC(=O)N1CCCC1 [Example 108, (4aR,5R,6R,7R)-7-Ethylthio-6-(pyrrolidin-1-ylcarbonyloxy)-4a,5,6,7-tetrahydro-1,3,4a,5-tetramethylbenz[f]indol-2(4H)-one] | 155 | 
13 | CC1=C2C[C@@]3(C)C(=CC[C@H](OC(=O)N4CCCC4)[C@@H]3C)C=C2N(C)C1=O [Example 117, (4aR,5R,6S)-6-(Pyrrolidin-1-ylcarbonyloxy)-4a,5,6,7-tetrahydro-1,3,4a,5-tetramethylbenz[f]indol-2(4H)-one] | 31 | 
14 | CS[C@@H]1C=C2C=C3C(=C(C)C(=O)N3C)C[C@]2(C)[C@@H](C)[C@H]1OC(=O)n1ccnc1 [Example 99, (4aR,5R,6R,7R)-6-(Imidazol-1-ylcarbonyloxy)-7-methylthio-4a,5,6,7-tetrahydro-1,3,4a,5-tetramethylbenz[f]indol-2(4H)-one] | 66 | 
15 | CCCNC(=O)O[C@H]1CC=C2C=C3C(=C(C)C(=O)N3C)C[C@]2(C)[C@H]1C [Example 116, (4aR,5R,6S)-6-Propylcarbamoyloxy-4a,5,6,7-tetrahydro-1,3,4a,5-tetramethylbenz[f]indol-2(4H)-one] | 19 | 
16 | CC1=C2C[C@@]3(C)C(=CC[C@H](OC(=O)n4ccnc4)[C@@H]3C)C=C2N(C)C1=O [Example 115, (4aR,5R,6S)-6-(Imidazol-1-ylcarbonyloxy)-4a,5,6,7-tetrahydro-1,3,4a,5-tetramethylbenz[f]indol-2(4H)-one] | 22 | 
17 | CC(=O)O[C@@H]1C=C2C=C3C(=C(C)C(=O)N3C)C[C@]2(C)[C@@H](C)[C@H]1OC(=O)c1ccco1 [Example 4, (4aR,5R,6R,7R)-7-Acetoxy-6-(2-furancarbonyloxy)-4a,5,6,7-tetrahydro-1,3,4a,5-tetramethylbenz[f]indol-2(4H)-one] | 32 | 
18 | CCC(=O)O[C@H]1[C@H](OC(C)=O)C=C2C=C3C(=C(C)C(=O)N3C)C[C@]2(C)[C@H]1C [Example 3, (4aR,5R,6R,7R)-7-Acetoxy-6-propionyloxy-4a,5,6,7-tetrahydro-1,3,4a,5-tetramethylbenz[f]indol-2(4H)-one] | 28 | 
19 | CCC(=O)O[C@H]1[C@H](OC(=O)CC)C=C2C=C3C(=C(C)C(=O)N3C)C[C@]2(C)[C@H]1C [Example 8, (4aR,5R,6R,7R)-6,7-Dipropionyloxy-4a,5,6,7-tetrahydro-1,3,4a,5-tetramethylbenz[f]indol-2(4H)-one] |  | special symptoms [1]: without no special symptom; survival of rats [1]: All the rats remained survived
20 | CCS[C@@H]1C=C2C=C3C(=C(C)C(=O)N3C)C[C@]2(C)[C@@H](C)[C@H]1O [Example 100, (4aR,5R,6R,7R)-7-Ethylthio-6-hydroxy-4a,5,6,7-tetrahydro-1,3,4a,5-tetramethrlbenz[f]indol-2(4H)-one] | 119 | 
21 | CO[C@@H]1C=C2C=C3C(=C(C)C(=O)N3C)C[C@]2(C)[C@@H](C)[C@H]1OC(C)=O [Example 25, (4aR,5R,6R,7R)-6-Acetoxy-7-methoxy-4a,5,6,7-tetrahydro-1,3,4a,5-tetramethylbenz[f]indol-2(4H)-one] | 25 | 
22 | CCS[C@@H]1C=C2C=C3C(=C(C)C(=O)N3C)C[C@]2(C)[C@@H](C)[C@H]1OC(=O)n1ccnc1 [Example 106, (4aR,5R,6R,7R)-7-Ethylthio-6-(imidazol-1-ylcarbonyloxy)-4a,5,6,7-tetrahydro-1,3,4a,5-tetramethylbenz[f]indol-2(4H)-one] | 137 | 
